Source: patent US12281363B2, “Methods for detecting antiviral-drug resistant virus” (Secretary of State for Health and Social Care, priority 2018, dated 2025)
Read-outs that look alike come from different tables or passages of the source.

Tested on: HSV-1
Assay: Plaque reduction assay, HSV-1 clinical isolates on Vero cells
Type: cell-based
Conditions: Human alphaherpesvirus 1, Vero
Procedure, shortened: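 Susceptibility of HSV-1 isolates was read as percent plaque reduction versus no-drug control, counted on fixed, crystal-violet-stained sub-confluent Vero cells infected at 75 PFU/well beneath CMC. Intermediate resistance lies between cut-offs ACV <3/>40 μM, PCV <10/>40 μM, CDV <24/>30 μM, FOS <250/>400 μM.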

With `Nc1nc2c(ncn2COCCO)c(=O)[nH]1` [Aciclovir, acyclovir] the IC50 (72 h, isolate HPG053, HSV-1 pol L802R + A834S (2405T>G, 2500G>T), also TK R176W, read-out: Drug susceptibility (IC50 value)) was > 40 µM, the IC50 (isolate HPG002, HSV-1 pol E992K (2974G>A), also TK insert (G) nt 430-436, pol A1169T, read-out: Drug susceptibility (IC50 value)) was 21.6 µM and the IC50 (isolate HPG003, HSV-1 TK Y172S (515A>C), read-out: Drug susceptibility (IC50 value)) was 28 µM. For the same compound, the IC50 (isolate HPG005, HSV-1 TK A37V (110C>T), read-out: Drug susceptibility (IC50 value)) was 1.46 µM, the IC50 (isolate HPG008, HSV-1 TK V204G (611T>G), read-out: Drug susceptibility (IC50 value)) was 22.5 µM and the IC50 (isolate HPG009, HSV-1 pol E992K (2974G>A), also pol A1169T, read-out: Drug susceptibility (IC50 value)) was 1.3 µM. The IC50 (isolate HPG010, HSV-1 TK Q125* (373C>T), read-out: Drug susceptibility (IC50 value)) was 9.21 µM, the IC50 (isolate HPG011, HSV-1 TK Q125* (373C>T), read-out: Drug susceptibility (IC50 value)) was 13.8 µM and the IC50 (isolate HPG013, HSV-1 TK M121I (363G>A), read-out: Drug susceptibility (IC50 value)) was 18.8 µM. For the same compound, the IC50 (isolate HPG013, HSV-1 pol D83A (248A>C), also TK M121I, pol A1169T, read-out: Drug susceptibility (IC50 value)) was 18.8 µM, the IC50 (isolate HPG014, HSV-1 pol A1115T (3343G>A), read-out: Drug susceptibility (IC50 value)) was 1.41 µM and the IC50 (isolate HPG014, HSV-1 pol R993C (2977C>T), read-out: Drug susceptibility (IC50 value)) was 1.41 µM. For the same compound, the IC50 (isolate HPG014, HSV-1 pol T54A (160A>G), read-out: Drug susceptibility (IC50 value)) was 1.41 µM, the IC50 (isolate HPG015, HSV-1 pol 966stop or F965_I966insF (2892_2893insT to 2895_2896insT), read-out: Drug susceptibility (IC50 value)) was 2.4 µM and the IC50 (isolate HPG018, HSV-1 TK frameshift (881delC to 885delC), read-out: Drug susceptibility (IC50 value)) was 24.7 µM. The IC50 (isolate HPG018, HSV-1 pol P1199T (3595C>A), also TK deletion (C) nt 881-885, pol A1169T, read-out: Drug susceptibility (IC50 value)) was 24.7 µM, the IC50 (isolate HPG019, HSV-1 pol K750T (2249A>C), also TK deletion (G) nt 430-436, pol A1169T, read-out: Drug susceptibility (IC50 value)) was > 40 µM and the IC50 (isolate HPG020, HSV-1 pol S911N (2732G>A), also pol A1169T, read-out: Drug susceptibility (IC50 value)) was 0.56 µM. The IC50 (isolate HPG021, HSV-1 pol R681Q (2042G>A), also TK deletion (G) nt 430-436, read-out: Drug susceptibility (IC50 value)) was > 40 µM, the IC50 (isolate HPG021, HSV-1 pol T839A (2515A>G), also TK deletion (G) nt 430-436, read-out: Drug susceptibility (IC50 value)) was > 40 µM and the IC50 (isolate HPG025, HSV-1 pol E850Q (2548G>C), also TK R216C, read-out: Drug susceptibility (IC50 value)) was 22.2 µM. The IC50 (isolate HPG026, HSV-1 pol E850Q (2548G>C), also TK R216C, pol A1169T, read-out: Drug susceptibility (IC50 value)) was 18.1 µM, the IC50 (isolate HPG027, HSV-1 TK V204G (611T>G), also pol S914L, A1169AT, read-out: Drug susceptibility (IC50 value)) was > 40 µM and the IC50 (isolate HPG027, HSV-1 pol S914L (2741C>T), also TK V204G, pol A1169T, read-out: Drug susceptibility (IC50 value)) was > 40 µM. The IC50 (isolate HPG029, HSV-1 TK Y172S (515A>C), read-out: Drug susceptibility (IC50 value)) was > 40 µM, the IC50 (isolate HPG031, HSV-1 pol E1120A (3359A>C), also a TK resistance mutation (footnote e), read-out: Drug susceptibility (IC50 value)) was 27.7 µM and the IC50 (isolate HPG031, HSV-1 pol G139R (415G>C or 415G>A), also a TK resistance mutation (footnote e), read-out: Drug susceptibility (IC50 value)) was 27.7 µM. The IC50 (isolate HPG032, HSV-1 TK 183* (437_438insA), read-out: Drug susceptibility (IC50 value)) was 27.4 µM, the IC50 (isolate HPG033, HSV-1 TK I358L (1072A>C), also TK T287M, read-out: Drug susceptibility (IC50 value)) was 38.9 µM and the IC50 (isolate HPG033, HSV-1 pol N1046T (3137A>C), also TK T287M, pol A1169T, read-out: Drug susceptibility (IC50 value)) was 38.9 µM. It also gave an IC50 (isolate HPG035, HSV-1 pol S239L (716C>T), also pol S724N, read-out: Drug susceptibility (IC50 value)) of 5.43 µM, an IC50 (isolate HPG037, HSV-1 TK R256W (766C>T), read-out: Drug susceptibility (IC50 value)) of 24.8 µM and an IC50 (isolate HPG037, HSV-1 TK Y239H (715T>C), read-out: Drug susceptibility (IC50 value)) of 24.8 µM. The IC50 (isolate HPG039, HSV-1 TK 85* or H58fs (169delC, 170delC, 171delC, or 172delC), read-out: Drug susceptibility (IC50 value)) was 25.6 µM, the IC50 (isolate HPG040, HSV-1 pol S911N (2732G>A), also TK deletion (C) nt 896-900, pol A1169T, read-out: Drug susceptibility (IC50 value)) was > 40 µM and the IC50 (isolate HPG041, HSV-1 pol S911N (2732G>A), also pol A1169T, read-out: Drug susceptibility (IC50 value)) was 0.5 µM. For the same compound, the IC50 (isolate HPG042, HSV-1 pol A972V (2915C>T), also TK deletion (C) nt 881-885, pol A1169T, read-out: Drug susceptibility (IC50 value)) was > 40 µM, the IC50 (isolate HPG042, HSV-1 pol G22R (64G>A), also TK deletion (C) nt 881-885, pol A1169T, read-out: Drug susceptibility (IC50 value)) was > 40 µM and the IC50 (isolate HPG043, HSV-1 TK 183* (437_438insA), read-out: Drug susceptibility (IC50 value)) was 28.5 µM. The IC50 (isolate HPG045, HSV-1 TK L49R (146T>G), read-out: Drug susceptibility (IC50 value)) was 31.5 µM, the IC50 (isolate HPG045, HSV-1 pol L419I (1255C>A), also TK L49R, pol A1169T, read-out: Drug susceptibility (IC50 value)) was 31.5 µM and the IC50 (isolate HPG046, HSV-1 TK I166N (497T>A), read-out: Drug susceptibility (IC50 value)) was 11.4 µM. For the same compound, the IC50 (isolate HPG050, HSV-1 TK Q34* (100C>T), read-out: Drug susceptibility (IC50 value)) was > 40 µM, the IC50 (isolate HPG051, HSV-1 pol D83A (248A>C), also TK R176stop, read-out: Drug susceptibility (IC50 value)) was 29.2 µM and the IC50 (isolate HPG052, HSV-1 TK Q34* (100C>T), read-out: Drug susceptibility (IC50 value)) was 8.45 µM. The IC50 (isolate HPG053, HSV-1 pol S911N (2732G>A), also TK R176W, pol A1169T, read-out: Drug susceptibility (IC50 value)) was > 40 µM, the IC50 (isolate HPG054, HSV-1 pol E992K (2974G>A), also TK insert (G) nt 430-436, pol A1169T, read-out: Drug susceptibility (IC50 value)) was 8.25 µM and the IC50 (read-out: Drug susceptibility (IC50 value), isolate HPG005, HSV-1 TK A192T (574G>A)) was 1.46 µM. The IC50 (read-out: Drug susceptibility (IC50 value), isolate HPG006, HSV-1 pol G121S (361G>A), also a TK resistance mutation (footnote a)) was > 40 µM, the IC50 (read-out: Drug susceptibility (IC50 value), isolate HPG012, HSV-1 pol G985E (2954G>A), also TK A93V) was > 40 µM and the IC50 (read-out: Drug susceptibility (IC50 value), isolate HPG016, HSV-1 pol A1169T (3505G>A)) was 3.55 µM. For the same compound, the IC50 (read-out: Drug susceptibility (IC50 value), isolate HPG037, HSV-1 TK L69M (205>A), also TK Y239H) was 24.8 µM, the IC50 (read-out: Drug susceptibility (IC50 value), isolate HPG042, HSV-1 TK frameshift (881delC to 885delC)) was > 40 µM and the IC50 (read-out: Drug susceptibility (IC50 value), isolate HPG047, HSV-1 pol E680 (2039A>C), also TK deletion (C) nt 548-553, pol A1169T) was 22.4 µM.
